Data from patent US11793852B2, “Application of Longhu Rendan in preparing medicament for preventing and/or treating liver fibrosis” (Shanghai Zhonghua Pharmaceutical Co., Ltd, priority 2017, dated 2023).

What was measured:
[1] = system: mice with liver fibrosis induced by CCl4; test: Pathological indicators (HE, Sirius Red, α-SMA immunohistochemical staining of livers) in mice with liver fibrosis induced by CCl4; format: in vivo; conditions: silybin 70 mg/kg/d, 6 weeks
Procedure: (§1) Experimental animals: SPF grade C57 mice, 8-week old, half male and half female, supplied by Guangdong Medical Lab Animal Center, housed in an animal room in a barrier environment (SPF grade), and feeds and water and libitum. Certificate [SCXK(YUE) 2013-0002].
(§2) Administration: 32 pills of Longhu Rendan were placed in a mortar and ground, dissolved in 20 mL of 0.5% CMC-Na, pipetted into a 50-mL centrifuge tube, vortexed to be completely dissolved, and made up to 32 mL (solution A). Six 5-ml EP tubes were charged with the solution A per 3 mL/tube (namely, daily dosage for a high-dose group). Another 50-mL tube was charged with 9 ml of the solution A, added with 9 mL 0.5% CMC-Na, and mixed uniformly; and six 5-ml EP tubes were charged with the solution per 3 mL/tube (namely, daily dosage for a medium-dose group). Another 50-mL centrifuge tube was charged with 4.5 ml of the solution A, added with the 0.5% CMC-Na solution to 18 mL, and mixed uniformly; and six 5-ml EP tubes were charged with the solution per 3 mL/tube (namely, daily dosage for a low-dose group). Continue for 6 weeks, 6×32 pills=192 pills in total, about 4 boxes.
Formulation of silybin: one 50-mL centrifuge tube was added with 10 to 12 mL of 0.5% CMC-Na, charged with 4 capsules, dissolved, made up to 20 mL with 0.5% CMC-Na, and mixed uniformly. Six 5-ml EP tubes were charged with the solution per 3 mL/tube (namely, daily dosage). Continue for 6 weeks, 6×4 capsules=24 capsules in total, about 2 boxes.
[…] healthy KM mice were randomly divided into 6 groups with 8 mice/group. Namely: a blank control group, a CCl4 model group, a silybin positive control group, and low, medium, and high dose groups of Longhu Rendan. All groups received a normal diet. […]
HE staining, Sirius Red staining, and smooth muscle actin protein α-SMA immunohistochemical staining. Positive staining areas of Sirius Red staining and immunohistochemical staining were calculated by the ImageJ software, data was processed and plotted by GraphPadPrism, and t-test analysis was performed, where P<0.05 was considered statistically significant.

[2] = system: mice with liver fibrosis induced by CCl4; test: Serological indicators (serum AST and ALT activity) in mice with liver fibrosis induced by CCl4; format: in vivo; conditions: silybin 70 mg/kg/d, gastric perfusion, 6 weeks; compared to the CCl4 group, P<0.05
Procedure: as §1
as §2, with “boxes. […]” for “boxes.”
After fasting for 12 h, the eyeballs were removed and blood was taken and serum was separated. ALT and AST activities were determined by alanine aminotransferase (ALT) and aspartate aminotransferase (AST) kits.

## COc1cc(C2Oc3cc([C@H]4Oc5cc(O)cc(O)c5C(=O)[C@@H]4O)ccc3OC2CO)ccc1O (stereo partly shown) [silybin]
[1]
  degree of fibrosis (Sirius Red staining of mouse livers): significantly improve the degree of fibrosis
  degree of fibrosis (α-SMA immunohistochemical staining of mouse livers): significantly improve the degree of fibrosis
[1]; compared to the CCl4 model group
  inflammatory infiltration and liver injury (HE staining of mouse livers): improved at different degrees
[2]
  serum AST activity: significantly reduced
